Test results reported in patent US20100061945A1, “Use Of Quinoa Extract As Cosmetic And Pharmaceutic Slimming Agent And/Or As An Agent Preventing The Formation Of New Fats In The Human Body” (Societe D'Exploitation Des Produits Pour Les Indus tries …, priority 2006, published 2010).

Columns and labels:
[1] = system: murine preadipocytes (3T3-L1 line); experiment: Differentiation of preadipocytes to adipocytes, G6PDH activity assay; format: cell-based; conditions: incubation concentration 0.0000001 weight % DE (1 ng/ml)
Method: 1—Principle of the Method • The method described consists in incubating the product in the presence of murine preadipocytes (3T3-L1 line) which, under the influence of an appropriate culture medium, differentiate into mature adipocytes capable of storing triglycerides. The differentiation is evaluated by an enzymatic assay of Glucose-6-phosphate dehydrogenase (G6PDH). This enzyme, which is located within the adipocytes, allows the conversion of Glucose-6-phosphate to Gluconate-6-phosphate in the presence of Nicotinamide Adenine Dinucleotide Phosphate (NAPD) and leads to the formation of Hydrogenated Nicotinamide Adenine Dinucleotide Phosphate (NAPDH) used for the neosynthesis of fatty acids. It is present in the mature adipocytes. The formation of NAPDH is monitored by absorption spectrophotometry at 340 nanometers.
2—Experimental Protocol • (i)—Cellular model: The test is carried out using murine preadipocytes (3T3-L1 cell line) cultured in a monolayer until confluence is obtained. […] The G6PDH activity of the cellular lyzates is measured by adding its substrate, D-glucose 6P (1 mmol) and its cofactor NADP (8 mmol). The kinetics of appearance of NAPDH is measured by spectrophotometry at 340 nm for 2 minutes. […]

normal human adipocytes = experiment: Lipolytic activity in isolated normal human adipocytes by assaying the free fatty acids; format: cell-based; conditions: incubation concentration 0.0001 weight % DE, two hours at 37° C.

## TNFα
[1]
  % inhibition (differentiation of the preadipocytes): 43%
[1]; differentiated control 0.46 ± 0.03, undifferentiated control 0.03 ± 0.002
  G6PDH: 0.005 ± 0.01 U/ml

## Cn1c(=O)c2c(ncn2C)n(C)c1=O [Caffeine, 1,3,7-trimethyl-xanthine]
Normal human adipocytes
  Lipolytic activity (compared with the control = 100): 154
Normal human adipocytes; mean of five assays, control 16 ± 3
  Free fatty acid concentration: 25 ± 4 µmol
